The nature of data set [1]: Passage through the brain-blood barrier. It is filed as in vivo. The conditions noted are these: work of the Department of Embryology, Dalian Medical University.
Data set [2] relates to L1210 leukemia. Put plainly: Murine leukemia L1210, animal pharmacodynamic study. The conditions noted are these: injection.
In data set [3] the test system is rat ascitic reticulum cell sarcoma. As to conditions: material with beta-elemene 65%, gamma and delta-elemene 20%, impurities 15%; cited from earlier work.
Data set [4] concerns murine Ehrlich ascites carcinoma. As to conditions: material with beta-elemene 65%, gamma and delta-elemene 20%, impurities 15%; cited from earlier work.
The subject of data set [5] is hepatic ascites carcinoma. Kind of data set: Hepatic ascites carcinoma, animal pharmacodynamic study.
The subject of data set [6] is S180 solid tumor. Kind of data set: S180 solid tumor, animal pharmacodynamic study. The conditions noted are these: injection.
For data set [7] the following is noted: material with beta-elemene 65%, gamma and delta-elemene 20%, impurities 15%; cited from earlier work.
The subject of data set [8] is hepatic solid tumor. Kind of data set: Hepatic solid tumor, animal pharmacodynamic study.
Data set [9] in a line: Side effects in animal pharmacodynamic studies (bone marrow, white blood cell count). The class given is in vivo.
In data set [10] the test system is thalamic glioblastoma; brain metastasis of lung cancer. Kind of data set: Treatment of patients with brain tumors with beta-elemene emulsive injection. It is filed as in vivo, human. The procedure:
In two instances, patients at the Second Affiliated Hospital of the Dalian Medical University were treated with the beta-elemene composition as an emulsive injection. The medical records were kept at that hospital.
The patient was hospitalized for surgery in July 1995. […] A beta-elemene emulsive injection was employed through 600 ml cervical artery intubation and 400 ml intravenous drip alternately once per day.
Due to the lung metastasis and the age of the patient, surgery was difficult to perform. The patient was hospitalized in mid November 1996.
The patient was treated with beta-elemene as prepared herein. […] In the middle of December 1996 the patient had another CT scan.

Data set [11] has as its system EAC. Kind of data set: EAC ascites carcinoma, animal pharmacodynamic study. The conditions noted are these: EAC ascites cancer, intra-peritoneal injection.
Data set [12] concerns cerebral neuroglioma. Put plainly: Cerebral neuroglioma, murine sub-renal capsule model. The class given is in vivo. An excerpt: (D) Neuroglioma: It was indicated in the pharmacodynamic study of cerebral neuroglioma using murine sub-renal capsule model that the inhibition rate was 50-70%.
Data set [13] has as its system S180 ascites cancer. Put plainly: S180 ascites cancer, animal pharmacodynamic study. The conditions noted are these: intra-peritoneal injection.
Where [14] appears, read: Patient I, thalamic glioblastoma.

On to `C=CC1(C)CCC(C(=C)C)CC1C(=C)C` (stereo not drawn) [beta-elemene, 1-methyl-1-vinyl-2,4-diisoprotenyl-cyclohexane], for which the “ability to pass through the brain-blood barrier (BBB)” value in data set [1] is “able to pass through the brain-blood barrier (BBB)”. The life prolongation rate is listed as 47-289% in data set [2], 103-224% in [5], 85-310% in data set [11] and 90-321% in data set [13]. The anti-tumor activity result in data set [3] and in data set [4] was “marked anti-tumor activity” in each case. Also, the inhibition rate in [6] was 33-59%; in data set [8] it was 10-30%; in data set [12], 50-70%. The “side effects during treatment” value in [7] was “Diarrhea and weight loss”. Besides, the “bone marrow inhibition or reduction of white blood cell count” value in data set [9] was “no measurable bone marrow inhibition or reduction of white blood cell count”. The “survival with the tumor” value in [10] (setting [14]) is listed as 11 months. For the same molecule, the “tumor size on CT scan” value in [10] (setting [14]) is listed as “no apparent reduction in tumor size”; in data set [10] (Patient II, lung cancer with multiple metastasis to the brain, about one month of treatment) it was “The size of the tumor was reduced”. Moreover, the “growth of the tumor” value in [10] (Patient I, thalamic glioblastoma, cervical artery intubation and intravenous drip alternately once per day) is listed as “quickly controlled”. Besides, the “prolongation of the life of the patient” value in data set [10] (Patient II, based upon previous experience with patients at that stage of illness) is on record as “more than 4 months”.

The values are drawn from patent US6464839B1, “Beta-elemene, method to prepare the same and uses thereof” (Yuan da International Group Limited, priority 1997, dated 2002).
